One data set relates to PTZ-induced seizures. Nature of the data set: Subcutaneous pentylenetetrazole (PTZ) test. It is filed as in vivo, mice. To be noted: ip; for ED50 / minimal effective dose: Mus musculus; for ED50: read-out: ED50 scPTZ; for minimal effective dose: dosages 30, 100, 300 mg/kg, read-out: PTZ screening, minimum dose whereby bioactivity was demonstrated in half or more of the mice; for PI scPTZ, protective index (TD50/ED50): male, Kunming, mouse, in vivo. The protocol: (§1) Male Kunming mice with weights from 18 to 22 g were used in all the pharmacological experiments. The mice were housed in the standard cages with 10 each, where a controlled temperature (25°C ± 2°C) with a 12 h light/dark cycle was maintained. All animals had free access to food and water. All experiments and procedures involving animals were carried out according to the Guide for the Care and Use of Laboratory Animals (National Academies Press, Washington, D.C., United States). Approval from the local medical ethical committee was obtained before the experiment.
In the PTZ test, mice were subcutaneously administered with PTZ at the dose of 85 mg/kg. At this dose, mice can be elicited a threshold seizure characterized by an episode of clonic spasms and tonic spasms. After being treated with test compounds at doses of 300, 100, and 30 mg/kg, the mice were considered protected if a single episode of clonic spasms of more than 5 s duration was not obtained. The quantitative anticonvulsant activity (ED50) in the PTZ model was determined and calculated with the same method described in the MES test.

In the next data set the target is GABAA BZD receptor. Nature of the data set: Radioligand receptor binding assay ([3H]-flumazenil competition). To be noted: rat brain membranes.
Another data set concerns MES-induced seizures. Nature of the data set: Maximal electroshock seizure (MES) test. To be noted: for ED50 / minimal effective dose: Mus musculus, ip; for ED50: read-out: ED50 MES; for minimal effective dose: dosages 30, 100, 300 mg/kg, read-out: MES screening, minimum dose whereby bioactivity was demonstrated in half or more of the mice; for PI MES, protective index (TD50/ED50): TD50 rotarod / ED50 MES, mice i.p. The format is in vivo, mice. The protocol:
as §1
In the MES test, mice were subjected to ear stimulation using a 0.2 s 60-Hz 50-mA alternating current to elicit seizures. Tonic hind limb extension was considered as the seizure occurring, and the vanishing of tonic hind limb extension indicates the protection against the MES-induced seizures. Mice were injected intraperitoneally with test compounds at doses of 300, 100, and 30 mg/kg to evaluate their general anticonvulsant activity. Half and 4 h intervals were chosen to test the anti-MES activity. […] A series of doses of the tested compounds were injected into the mice with 10 in one group.
(In general: Protection in the maximal electroshock model is a classic sign of anticonvulsant action.)

A short description of data set [1]: Neurotoxicity screening (rotarod test). To be noted: male, Kunming, mouse, in vivo, ip; rotarod, mice; 95% confidence interval in brackets. The format is in vivo. The protocol:
as §1
(§2) The rotarod test was used to evaluate the neurotoxicity of the synthesized compounds. Before the formal experiments, mice were trained to climb on a rotating rod of diameter 3.2 cm with the rotation speed of 10 rpm. Test compounds in the three doses were intraperitoneally injected into the trained mice. […] The rough neurotoxic dose was obtained in which mice cannot maintain equilibrium on the rod for at least 1 min. The quantitative neurotoxic dose (TD50) of the test compounds was measured and calculated with the same method described in the MES test.

Data set [2] deals with ability to maintain equilibrium on rotating rod. The data set can be described thus: Neurotoxicity screening (rotarod test). It is filed as in vivo. The conditions noted are these: i.p.; for NT screening (rotarod), minimum neurotoxic dose in half or more of the mice: dosages 30, 100, 300 mg/kg. How it is done:
as §1, §2

[3] abbreviates: mice, 95% confidence interval in brackets.

Like-named read-outs stand apart in the source and are kept apart here.

Usually ED50 stands for the dose that gives a 50% effect, or the effect in half of the subjects. By IC50 is commonly meant the midpoint of a concentration-inhibition curve. A high value points to lower potency. In general, Ki refers to a dissociation constant, usually derived from enzyme kinetics or from competition with a known ligand. The low end stands for higher affinity, the high end for lower affinity. For `CN1C(=O)CN=C(c2ccccc2)c2cc(Cl)ccc21` [Diazepam, reference compound], the ED50 in the data set with PTZ-induced seizures was found to be 0.5 mg/kg; in the data set on MES-induced seizures, 10.1 mg/kg. In addition, on GABAA BZD receptor (competition with 0.5 nM [3H]-flumazenil, 95% CI in brackets), the IC50 stood at 1.3 nM. For the same compound, at GABAA BZD receptor (competition with [3H]-flumazenil, Cheng–Prusoff), the Ki was 0.61 nM.

With `c1ccc(COc2ccc(-c3ccnc4ncnn34)cc2)cc1` [Compound 6e, 7-(4-(Benzyloxy)phenyl)-[1,2,4]triazolo[1,5-a]pyrimidine], the minimal effective dose with PTZ-induced seizures (mice, 0.5 h after injection) is 30 mg/kg; in the data set with PTZ-induced seizures (mice, 4 h after injection), over 300 mg/kg; in the data set on MES-induced seizures (mice, 0.5 h after injection) it was 30 mg/kg; in the data set on MES-induced seizures (mice, 4 h after injection) it was 300 mg/kg. For the same compound, the ED50 in the data set with PTZ-induced seizures (setting [3]) is 28.4 mg/kg; with MES-induced seizures (setting [3]), 38 mg/kg. Also, in the data set with PTZ-induced seizures, the “PI scPTZ, protective index (TD50/ED50)” value is on record as 12.9. Also, in the data set with MES-induced seizures, the “PI MES, protective index (TD50/ED50)” value is 9.6. The compound also showed a TD50 at 30 min in data set [1] of 366 mg/kg. For the same compound, the “NT screening (rotarod), minimum neurotoxic dose in half or more of the mice” value (“NT screening (rotarod)” for short) was 300 mg/kg in data set [2] (0.5 h after injection); “— (A dash indicates the absence of anticonvulsant activity and neurotoxicity at the maximum dose administered (300 mg/kg))” in data set [2] (4 h after injection).

As for `Clc1ccc(-c2ccnc3ccnn23)c(Cl)c1` [Compound 4e, 7-(2,4-Dichlorophenyl)pyrazolo[1,5-a]pyrimidine], the minimal effective dose in the data set on PTZ-induced seizures (mice, 0.5 h after injection) is 300 mg/kg; with PTZ-induced seizures (mice, 4 h after injection), over 300 mg/kg; with MES-induced seizures (mice, 0.5 h after injection), over 300 mg/kg; in the data set on MES-induced seizures (mice, 4 h after injection), over 300 mg/kg. The “NT screening (rotarod)” value was “— (A dash indicates the absence of anticonvulsant activity and neurotoxicity at the maximum dose administered (300 mg/kg))” in data set [2] (0.5 h after injection); “— (A dash indicates the absence of anticonvulsant activity and neurotoxicity at the maximum dose administered (300 mg/kg))” in data set [2] (4 h after injection).

For the compound `CCCCCOc1ccc(-c2ccnc3ncnn23)cc1` [Compound 6c, 7-(4-(Pentyloxy)phenyl)-[1,2,4]triazolo[1,5-a]pyrimidine], the minimal effective dose in the data set on PTZ-induced seizures (mice, 0.5 h after injection) is 30 mg/kg; with PTZ-induced seizures (mice, 4 h after injection) it was over 300 mg/kg; with MES-induced seizures (mice, 0.5 h after injection) it was 30 mg/kg; with MES-induced seizures (mice, 4 h after injection) it was 300 mg/kg. In addition, the ED50 in the data set on PTZ-induced seizures (setting [3]) stood at 23.7 mg/kg; in the data set with MES-induced seizures (setting [3]), 25.3 mg/kg. Besides, the “PI scPTZ, protective index (TD50/ED50)” value with PTZ-induced seizures turned out to be 16.0. For the same compound, the “PI MES, protective index (TD50/ED50)” value in the data set with MES-induced seizures amounted to 15.0. This compound also displayed a TD50 at 30 min in data set [1] of 380 mg/kg. Further, the “NT screening (rotarod)” value was “— (A dash indicates the absence of anticonvulsant activity and neurotoxicity at the maximum dose administered (300 mg/kg))” in data set [2] (0.5 h after injection); “— (A dash indicates the absence of anticonvulsant activity and neurotoxicity at the maximum dose administered (300 mg/kg))” in data set [2] (4 h after injection).

In the case of `COc1ccc(-c2ccnc3ncnn23)cc1` [Compound 3i, 7-(4-Methoxyphenyl)-[1,2,4]triazolo[1,5-a]pyrimidine], the minimal effective dose in the data set on PTZ-induced seizures (mice, 0.5 h after injection) is 100 mg/kg; with PTZ-induced seizures (mice, 4 h after injection), over 300 mg/kg; in the data set with MES-induced seizures (mice, 0.5 h after injection), 300 mg/kg; with MES-induced seizures (mice, 4 h after injection), over 300 mg/kg. Besides, the “NT screening (rotarod)” value was “— (A dash indicates the absence of anticonvulsant activity and neurotoxicity at the maximum dose administered (300 mg/kg))” in data set [2] (0.5 h after injection); “— (A dash indicates the absence of anticonvulsant activity and neurotoxicity at the maximum dose administered (300 mg/kg))” in data set [2] (4 h after injection).

For the compound `Brc1ccc(-c2ccnc3ccnn23)cc1` [Compound 4f, 7-(4-Bromophenyl)pyrazolo[1,5-a]pyrimidine], the minimal effective dose is over 300 mg/kg in the data set with PTZ-induced seizures (mice, 0.5 h after injection); over 300 mg/kg in the data set with PTZ-induced seizures (mice, 4 h after injection); over 300 mg/kg with MES-induced seizures (mice, 0.5 h after injection); over 300 mg/kg in the data set on MES-induced seizures (mice, 4 h after injection). For the same compound, the “NT screening (rotarod)” value in data set [2] (0.5 h after injection) is “— (A dash indicates the absence of anticonvulsant activity and neurotoxicity at the maximum dose administered (300 mg/kg))”; in data set [2] (4 h after injection), “— (A dash indicates the absence of anticonvulsant activity and neurotoxicity at the maximum dose administered (300 mg/kg))”.

In the case of `O=[N+]([O-])c1ccc(-c2ccnc3ncnn23)cc1` [Compound 3g, 7-(4-Nitrophenyl)-[1,2,4]triazolo[1,5-a]pyrimidine], the minimal effective dose with PTZ-induced seizures (mice, 0.5 h after injection) is over 300 mg/kg; with PTZ-induced seizures (mice, 4 h after injection), over 300 mg/kg; in the data set on MES-induced seizures (mice, 0.5 h after injection) it was over 300 mg/kg; in the data set on MES-induced seizures (mice, 4 h after injection) it was over 300 mg/kg. Also, the “NT screening (rotarod)” value is “— (A dash indicates the absence of anticonvulsant activity and neurotoxicity at the maximum dose administered (300 mg/kg))” in data set [2] (0.5 h after injection); “— (A dash indicates the absence of anticonvulsant activity and neurotoxicity at the maximum dose administered (300 mg/kg))” in data set [2] (4 h after injection).

For the compound `Clc1ccc(-c2ccnc3ncnn23)cc1` [Compound 3d, 7-(4-Chlorophenyl)-[1,2,4]triazolo[1,5-a]pyrimidine], the minimal effective dose with PTZ-induced seizures (mice, 0.5 h after injection) was over 300 mg/kg; with PTZ-induced seizures (mice, 4 h after injection) it was over 300 mg/kg; with MES-induced seizures (mice, 0.5 h after injection), over 300 mg/kg; in the data set on MES-induced seizures (mice, 4 h after injection) it was over 300 mg/kg. The “NT screening (rotarod)” value in data set [2] (0.5 h after injection) is “— (A dash indicates the absence of anticonvulsant activity and neurotoxicity at the maximum dose administered (300 mg/kg))”; in data set [2] (4 h after injection), “— (A dash indicates the absence of anticonvulsant activity and neurotoxicity at the maximum dose administered (300 mg/kg))”.

Take `CCCC(CCC)C(=O)O` [Valproate, reference compound]: the ED50 with PTZ-induced seizures (setting [3]) was determined as 149 mg/kg; in the data set on MES-induced seizures (setting [3]), 264 mg/kg. For the same compound, in the data set with PTZ-induced seizures, the “PI scPTZ, protective index (TD50/ED50)” value came out at 2.8. In addition, the “PI MES, protective index (TD50/ED50)” value with MES-induced seizures turned out to be 1.6. For the same compound, in data set [2] (rotarod, mice, 95% confidence interval in brackets), the TD50 is recorded as 418 (369–450) mg/kg.

With `CCCCOc1ccc(-c2ccnc3ncnn23)cc1` [Compound 6b, 7-(4-Butoxyphenyl)-[1,2,4]triazolo[1,5-a]pyrimidine], the minimal effective dose in the data set on PTZ-induced seizures (mice, 0.5 h after injection) is 300 mg/kg; with PTZ-induced seizures (mice, 4 h after injection), over 300 mg/kg; with MES-induced seizures (mice, 0.5 h after injection), 100 mg/kg; with MES-induced seizures (mice, 4 h after injection) it was over 300 mg/kg. For the same compound, the “NT screening (rotarod)” value was “— (A dash indicates the absence of anticonvulsant activity and neurotoxicity at the maximum dose administered (300 mg/kg))” in data set [2] (0.5 h after injection); “— (A dash indicates the absence of anticonvulsant activity and neurotoxicity at the maximum dose administered (300 mg/kg))” in data set [2] (4 h after injection).

The values are drawn from PMC9260081, “Design, Synthesis, and Evaluation of Anticonvulsant Activities of New Triazolopyrimidine Derivatives” (Frontiers in Chemistry, 2022).
